# Laboratory results reported in PMC12543283, “TastepepAI: An artificial intelligence platform for taste peptide de novo design” (PLOS Computational Biology, 2025).
# Ends that are not written are not given here.
# Columns and labels:
# [1] = known from earlier studies; cited from earlier work
# Source text: To address these experimental challenges, various computational and artificial intelligence-based approaches for taste peptide identification have emerged. Most reported methods focus on predicting single taste properties, such as BERT4Bitter and iBitter-SCM [42] for bitter peptide identification, while iUmami-SCM [43], Umami-MRNN [[44], iUmami-DRLF [45], and Umami-gcForest are dedicated to umami peptide prediction. Additionally, a few models like Umami_YYDS [35] have been reported to perform binary classification for umami and bitter tastes. However, current methodologie ...
# [2] = test system: human pancreatic ductal epithelial cells (HPNE); assay: Cell viability assessment (CCK-8), HPNE; details: CCK-8, mean of Data1-3 (n = 3)
# [3] = test system: red blood cells from 6-week-old BALB/c mice (mRBCs); assay: Hemolysis assay; format: cell-based, mouse; details: mean of Data1-3; 100 μM peptide, 1.5 × 10^8 cells/mL mRBCs, 37°C, 60 min, absorbance 490 nm; PBS 0% and 1% Triton X-100 100% controls
# Protocol: The hemolytic activity of synthetic peptides was evaluated using red blood cells from 6-week-old BALB/c mice (mRBCs). Freshly isolated mRBCs were washed three times with PBS buffer (8000 rpm, 2 min per wash) to prepare the mRBC suspension. Equal volumes (70 μL) of 200 μM peptide solutions and mRBC suspension were mixed to achieve final concentrations of 100 μM peptide and 1.5 × 10^8 cells/mL mRBCs in the reaction system. After incubation with shaking at 37°C for 60 min, samples were centrifuged at 10000 rpm for 5 min, and hemoglobin release was assessed by measuring the absorbance of the supernatant at 490 nm. PBS and 1% Triton X-100 treatments served as 0% and 100% hemolysis controls, respectively. A complete dataset of hemolytic activity measurements is documented in S4 Data.
# [4] = Electronic tongue analysis (Taste-Sensing System SA 402B); design: unit not given here; details: reference solution 30 mM KCl + 0.3 mM tartaric acid as baseline, first measurement excluded; for Umami: sensor AAE; for Umami / Bitter / Sweet: detection threshold 0, room temperature; for Umami / Bitter / Sour / Salty: four replicates; for Sour: detection threshold -13, room temperature; for Salty: detection threshold -6, room temperature; for Sweet: measured five times
# Outline: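 Room-temperature electronic-tongue readings with five taste probes, calibrated against a reference of 30 mM KCl and 0.3 mM tartaric acid. Samples at 0.1 mg/mL and 1.0 mg/mL were measured four times, sweetness five times, and the first run was dropped. Detection cut-offs were sour −13, salty −6, others 0.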
# [5] = test system: human embryonic kidney cells (HEK293T); assay: Cell viability assessment (CCK-8), HEK293T; details: CCK-8, mean of Data1-3 (n = 3)
# [6] = test system: human bronchial epithelial cells (BEAS-2B); assay: Cell viability assessment (CCK-8), BEAS-2B; details: BEAS-2B cells, CCK-8, mean of Data1-3 (n = 3)
# [7] = test system: human umbilical vein endothelial cells (HUVEC); assay: Cell viability assessment (CCK-8), HUVEC; details: CCK-8, mean of Data1-3 (n = 3)
Substance,taste characteristics [1],"Average cell viability, HPNE [2]",Average hemolysis [3] [%],Umami ([4]; peptide 0.1 mg/mL),Umami ([4]; peptide 1 mg/mL),"Bitter ([4]; sensor C00, peptide 0.1 mg/mL)","Bitter ([4]; sensor C00, peptide 1 mg/mL)","Sour ([4]; sensor CA0, peptide 0.1 mg/mL)","Sour ([4]; sensor CA0, peptide 1 mg/mL)","Salty ([4]; sensor CT0, peptide 0.1 mg/mL)","Salty ([4]; sensor CT0, peptide 1 mg/mL)","Sweet ([4]; sensor GL1, peptide 0.1 mg/mL)","Sweet ([4]; sensor GL1, peptide 1 mg/mL)","Average cell viability, HEK293T [5]","Average cell viability, BEAS-2B [6]","Average cell viability, HUVEC [7]"
KGDEESLA,both umami and bitter characteristics,,,,,,,,,,,,,,,
YKYHES [TaPep13],,99.43,1.05,1.81,-4.92,7.46,-0.78,-3.77,12.34,-15.97,15.30,3.50,-4.65,95.55,101.89,104.44
